Literature values, collected in patent US8530500B2, “Stable pharmaceutical omeprazole formulation for oral administration” (Vetegen, LLC, priority 2009, dated 2013).
≈ marks a conversion by molar mass, not a printed value.

Tests used:
[1] = not given; remark: listed apart in the source

- solubility in dimethyl sulfoxide (DMSO) (DMSO): > 19 mg/mL
- solubility in Polyethylene Glycol 400 (Polyethylene Glycol 400): 20 mg/mL (≈ 57.9 mM)
- solubility in ethanol (ethanol): 4.5 mg/mL (≈ 13 mM)
- solubility in water (water): 0.5 mg/mL (≈ 1.45 mM)
- half-life at neutral pH ([1]; neutral pH): about 14 hours
- stability at pH levels above 7 ([1]; pH above 7, protected from light and extremes in temperature and humidity): very stable
- stability in water, ethanol or acidic environments ([1]; water, ethanol or acidic environments): not very stable
Compound: COc1ccc2[nH]c([S+]([O-])Cc3ncc(C)c(OC)c3C)nc2c1 (stereo not shown) [omeprazole]
